Measurements as given in US7589062B2, “Two synthetic peptides for treatment and prevention of cancers” (priority 2002, dated 2009).
Where no end group is shown, it is not given here.

Key:
CCL-13 - cancer of mouth = test: Cytolytic effect on cancer cells in culture, read microscopically; assay type: cell-based, human
SP/2 - mouse myeloma = test: as above; assay type: cell-based
SP/2 cancer cells = test: Anti cancer activity in vivo: survival of mice injected i.p. with SP/2 cancer cells (ascitic tumors); details: Balb/c mice, 2 million SP/2 cells i.p.; 100 μg/mouse for seven consecutive days; PBS control 23 days
Procedure: Anti Cancer Activity of Synthetic AT and KT In Vivo: Adult Balb/c mice were injected intra-peritoneally with 0.5 ml containing 2 million SP/2 cancer cells. Mice were divided into four groups. Starting from day one of post injection the mice were treated with AT and KT individually and the combination of both at 200 μg/ml concentration. Doses of 0.5 ml containing 100 μg/mouse were given for seven consecutive days and the control mice received 0.5 ml PBS.

HT-29 - cancer of colon = test: Cytolytic effect on cancer cells in culture, read microscopically; assay type: cell-based, human
Procedure: (§1) Biological cytolytic activity of AT and KT at various concentrations ranging from […], 6.25, 12.5 and 25 μg/ml were tested on human cancer cells and SP/2 mouse myeloma cells. The combination AT+KT was 50% by weight of each.

[1] = system: HBL-100 - cancer of breast; test: as above; assay type: cell-based, human
Procedure: as §1

[2] = system: Sk-ov-3 - cancer of ovary; test: as above; assay type: cell-based, human
Procedure: as §1

BT-20 - cancer of breast = test: as above; assay type: cell-based, human
Procedure: as §1

SP/2 cells = test: Cytolytic activity of trypsin digested fragments of AT and KT on SP/2 cells; assay type: cell-based, mouse; details: 10^5 SP/2 cells, 20-1.0 μg/ml, read after three days
Procedure: Biological Activity of Fragments on SP/2 cells: The cytolytic activity of the trypsin digested fragments of AT and KT were tested on 10^5 SP/2 cells. Dulbecco Modified Eagle's Medium (DMEM) containing 10% newborn calf serum (NBCS), L-glutamine and antibiotics penicillin and streptomycin was used to grow SP/2 cells. Initially, each fraction was tested on cells grown in 48 well plate at 37° C. in a humid CO2 incubator. The serum free medium containing different concentrations such as 20, 10, 5, 2.5 and 1.0 μg/ml of each fragment was tested. Control cells received PBS to serve as controls.
The tests were read after three days. […] Those fragments were considered as the active domains for cancer cell inhibitor. […] The fragment 6 for AT and the fragment 10 for KT were considered as the active domains for cytolytic activity.

[3] = comparison of syn KT with syn AT

Sequence	% Cytolyic cells CCL-13 (CCL-13 - cancer of mouth; 3.12 μg/ml) [%]	% Cytolyic cells CCL-13 (CCL-13 - cancer of mouth; 6.25 μg/ml) [%]	% Cytolyic cells CCL-13 (CCL-13 - cancer of mouth; 12.5 μg/ml) [%]	% Cytolyic cells CCL-13 (CCL-13 - cancer of mouth; 25 μg/ml) [%]	% Cytolyic cells SP/2 (SP/2 - mouse myeloma; 3.12 μg/ml) [%]	% Cytolyic cells SP/2 (SP/2 - mouse myeloma; 6.25 μg/ml) [%]	% Cytolyic cells SP/2 (SP/2 - mouse myeloma; 12.5 μg/ml) [%]	% Cytolyic cells SP/2 (SP/2 - mouse myeloma; 25 μg/ml) [%]	Survival (incubation period for development of ascitic tumors to cause death) (SP/2 cancer cells) [days]	% Cytolyic cells HT-29 (HT-29 - cancer of colon; 3.12 μg/ml) [%]	% Cytolyic cells HT-29 (HT-29 - cancer of colon; 6.25 μg/ml) [%]	% Cytolyic cells HT-29 (HT-29 - cancer of colon; 12.5 μg/ml) [%]	% Cytolyic cells HT-29 (HT-29 - cancer of colon; 25 μg/ml) [%]	% Cytolyic cells HBL-100 ([1]; 3.12 μg/ml) [%]	% Cytolyic cells HBL-100 ([1]; 6.25 μg/ml) [%]	% Cytolyic cells HBL-100 ([1]; 12.5 μg/ml) [%]	% Cytolyic cells HBL-100 ([1]; 25 μg/ml) [%]	% Cytolyic cells Sk-ov-3 ([2]; 3.12 μg/ml) [%]	% Cytolyic cells Sk-ov-3 ([2]; 6.25 μg/ml) [%]	% Cytolyic cells Sk-ov-3 ([2]; 12.5 μg/ml) [%]	other results
FCRFLLCPSR (cysteine pairing not given here) [Atroporin]	0	50	100	100	0	0	50	100	30	0	0	100	100	0	0	50	100	0	100	100	% Cytolyic cells Sk-ov-3 ([2]; 25 μg/ml): 100%; Cytolytic effect compared in similar concentration, Sk-ov-3 ([2]; comparison of syn AT with the other peptide): more cytolytic; % Cytolyic cells BT-20 (BT-20 - cancer of breast; 3.12 μg/ml): 0%; % Cytolyic cells BT-20 (BT-20 - cancer of breast; 6.25 μg/ml): 0%; % Cytolyic cells BT-20 (BT-20 - cancer of breast; 12.5 μg/ml): 50%; % Cytolyic cells BT-20 (BT-20 - cancer of breast; 25 μg/ml): 100%
PPGNQPDADS [Kaotree]	0	0	100	100	0	50	100	100	37	0	0	100	100	0	50	100	100	0	50	100	Cytolytic effect compared in similar concentration, HBL-100 [1, 3]: more cytolytic than AT; % Cytolyic cells Sk-ov-3 ([2]; 25 μg/ml): 100%; % Cytolyic cells BT-20 (BT-20 - cancer of breast; 3.12 μg/ml): 0%; % Cytolyic cells BT-20 (BT-20 - cancer of breast; 6.25 μg/ml): 0%; % Cytolyic cells BT-20 (BT-20 - cancer of breast; 12.5 μg/ml): 75%; % Cytolyic cells BT-20 (BT-20 - cancer of breast; 25 μg/ml): 100%; Cytolytic effect compared in similar concentration, BT-20 (BT-20 - cancer of breast; [3]): more cytolytic than AT
PPGNQPDADSN [fragment 10 for KT]	–	–	–	–	–	–	–	–	–	–	–	–	–	–	–	–	–	–	–	–	Cytolytic activity of trypsin digested fragments, ranking among fragments (SP/2 cells): most active
FCRFLLCPSRSLL (cysteine pairing not given here) [fragment 6 for AT]	–	–	–	–	–	–	–	–	–	–	–	–	–	–	–	–	–	–	–	–	Cytolytic activity of trypsin digested fragments, ranking among fragments (SP/2 cells): most active
